Where two headings read alike, the source gives them in different places.
Target: T1, MDR1 (P-glycoprotein) (Homo sapiens, UniProt P08183)
T1 construct: host or cells: MDCK (MDR1-MDCK; wild-type MDCK as comparator)
Assay: MDR1-MDCK permeability and efflux assay (Papp, efflux ratio, effective efflux ratio)
Format: in vitro ADME
Conditions: dog; for Papp A→B at 1 h, 10 μM: pH 7.4, read-out: Papp AB MDR1
Method in brief: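 Confluent WT or MDR1-MDCK monolayers (3-day culture) dosed with 10 μM compound, 0.1% DMSO, in HBSS/25 mM HEPES pH 7.4, A>B and B>A, 1 h at 37 °C; LC-MS/MS quantitation. Papp from acceptor/donor ratio; efflux ratio = Papp B>A/A>B; EER = ER(MDR1)/ER(WT).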

[1] = MDCK-MDR1, pH 7.4, ER(MDR1-MDCK)/ER(wild-type MDCK), read-out: EER (Effective Efflux Ratio)
[2] = MDCK-MDR1, pH 7.4, Papp B>A/Papp A>B, MDR1-MDCK cells, read-out: ER MDR1 (Efflux Ratio)

T1 sequence (P08183 whole entry): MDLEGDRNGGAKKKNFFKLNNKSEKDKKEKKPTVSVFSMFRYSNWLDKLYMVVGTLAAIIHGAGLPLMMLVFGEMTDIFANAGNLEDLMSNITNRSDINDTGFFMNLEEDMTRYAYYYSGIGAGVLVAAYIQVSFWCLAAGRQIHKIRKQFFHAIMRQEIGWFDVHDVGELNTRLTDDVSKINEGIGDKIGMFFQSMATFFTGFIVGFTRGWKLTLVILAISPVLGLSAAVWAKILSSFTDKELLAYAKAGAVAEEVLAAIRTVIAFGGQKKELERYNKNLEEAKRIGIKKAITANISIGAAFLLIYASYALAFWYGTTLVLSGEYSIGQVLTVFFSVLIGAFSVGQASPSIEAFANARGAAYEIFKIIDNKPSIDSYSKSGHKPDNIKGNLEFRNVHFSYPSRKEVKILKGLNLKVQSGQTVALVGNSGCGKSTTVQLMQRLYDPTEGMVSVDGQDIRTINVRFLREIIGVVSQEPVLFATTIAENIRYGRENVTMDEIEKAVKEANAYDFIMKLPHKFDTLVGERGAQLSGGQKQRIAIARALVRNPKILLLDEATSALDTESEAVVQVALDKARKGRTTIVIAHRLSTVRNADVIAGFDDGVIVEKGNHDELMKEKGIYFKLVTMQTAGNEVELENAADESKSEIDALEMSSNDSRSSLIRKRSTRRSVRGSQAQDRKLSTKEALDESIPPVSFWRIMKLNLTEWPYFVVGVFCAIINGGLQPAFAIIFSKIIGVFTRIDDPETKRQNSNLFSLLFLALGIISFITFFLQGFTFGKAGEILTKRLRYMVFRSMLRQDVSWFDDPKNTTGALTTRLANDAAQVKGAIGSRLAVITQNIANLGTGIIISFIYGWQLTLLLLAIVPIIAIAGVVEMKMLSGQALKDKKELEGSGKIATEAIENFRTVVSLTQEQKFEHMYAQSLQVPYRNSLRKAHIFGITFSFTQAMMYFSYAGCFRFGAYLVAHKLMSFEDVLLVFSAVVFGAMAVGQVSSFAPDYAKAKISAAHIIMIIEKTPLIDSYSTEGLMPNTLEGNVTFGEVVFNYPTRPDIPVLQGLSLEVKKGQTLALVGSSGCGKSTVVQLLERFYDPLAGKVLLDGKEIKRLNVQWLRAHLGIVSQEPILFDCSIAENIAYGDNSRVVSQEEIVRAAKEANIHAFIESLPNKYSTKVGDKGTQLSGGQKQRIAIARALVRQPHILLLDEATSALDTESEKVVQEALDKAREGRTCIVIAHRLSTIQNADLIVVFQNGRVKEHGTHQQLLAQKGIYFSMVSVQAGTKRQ

Row | efflux ratio at 1 h, 10 μM [1] | efflux ratio at 1 h, 10 μM [2] | Papp A→B at 1 h, 10 μM (MDR1-MDCK cells) | SMILES
1 | 1 to 2 | 1 to 2 | > 20 ×10⁻⁶ cm/s | CC1COc2cc(Cl)ccc2N1C(=O)N1CC2(C1)CN(c1cnccn1)C2 (single isomer, unassigned) [1-58-B]
2 | 1 to 2 | 1 to 2 | > 20 ×10⁻⁶ cm/s | COc1ccc2c(c1)OCC(C)N2C(=O)N1CC2(C1)CN(c1ccc(F)cn1)C2 (single isomer, unassigned) [1-59-B]
3 | 1 to 2 | < 1 | > 20 ×10⁻⁶ cm/s | CC1COc2cc(Cl)ccc2N1C(=O)N1CC2(C1)CN(c1ccccn1)C2 (single isomer, unassigned) [1-60-B]
4 | < 1 | 1 to 2 | > 20 ×10⁻⁶ cm/s | CC1COc2cc(F)ccc2N1C(=O)N1CC2(C1)CN(c1cnccn1)C2 (single isomer, unassigned) [1-65-B]
5 | < 1 | < 1 | > 20 ×10⁻⁶ cm/s | CC1COc2cc(Cl)ccc2N1C(=O)N1CC2(C1)CN(c1ncc(F)cn1)C2 (single isomer, unassigned) [18-2-B]
6 | 1 to 2 | 1 to 2 | > 20 ×10⁻⁶ cm/s | Cc1cnc(N2CC3(CN(C(=O)N4c5ccc(Cl)cc5OCC4C)C3)C2)nc1 (single isomer, unassigned) [20-13-B]
7 | 1 to 2 | < 1 | > 20 ×10⁻⁶ cm/s | CC1COc2cc(Cl)ccc2N1C(=O)N1CC2(C1)CN(c1nn(C)c3ncccc13)C2 (single isomer, unassigned) [20-15-B]
8 | < 1 | < 1 | > 20 ×10⁻⁶ cm/s | O=C(N1CC2(C1)CN(c1cnc(F)cn1)C2)N1CCOc2cc(Cl)ccc21 [1-18]
9 | 1 to 2 | 1 to 2 | > 20 ×10⁻⁶ cm/s | Cc1cncc(N2CC3(CN(C(=O)N4CCOc5cc(Cl)ccc54)C3)C2)n1 [1-22]
10 | < 1 | < 1 | > 20 ×10⁻⁶ cm/s | CC1COc2cc(Cl)ccc2N1C(=O)N1CC2(C1)CN(c1ccccn1)C2 (stereo not drawn) [1-60]
11 | 1 to 2 | 1 to 2 | > 20 ×10⁻⁶ cm/s | O=C(N1CC2(C1)CN(c1ccc(F)cn1)C2)N1CCOc2cc(F)ccc21 [1-64]
12 | < 1 | 1 to 2 | > 20 ×10⁻⁶ cm/s | O=C(N1CC2(C1)CN(c1cc(F)ccn1)C2)N1CCOc2cc(Cl)ccc21 [1-70]
13 | > 3 | 1 to 2 | > 20 ×10⁻⁶ cm/s | O=C(N1CC2(C1)CN(c1cccnn1)C2)N1CCOc2cc(Cl)ccc21 [1-71]
14 | 1 to 2 | < 1 | > 20 ×10⁻⁶ cm/s | O=C(N1CC2(C1)CN(c1cccnc1)C2)N1CCOc2cc(Cl)ccc21 [1-72]
15 | 2 to 3 | 1 to 2 | 7 to 10 ×10⁻⁶ cm/s | CC1COc2cc(Cl)ccc2N1C(=O)N1CC2(C1)CN(c1noc3ccccc13)C2 (stereo not drawn) [21-1, (6-(benzo[d]isoxazol-3-yl)-2,6-diazaspiro[3.3]heptan-2-yl)(7-chloro-3-methyl-2,3-dihydro-4H-benzo[b][1,4]oxazin-4-yl)methanone]
16 | 1 to 2 | 1 to 2 | > 20 ×10⁻⁶ cm/s | CC1COc2cc(Cl)ccc2N1C(=O)N1CC2(C1)CN(c1ncccc1C#N)C2 (stereo not drawn) [21-2]
17 | 1 to 2 | 1 to 2 | > 20 ×10⁻⁶ cm/s | Cc1cncc(N2CC3(CN(C(=O)N4c5ccc(Cl)cc5OCC4C)C3)C2)n1 (stereo not drawn) [21-3]
18 | > 3 | > 3 | > 20 ×10⁻⁶ cm/s | Cc1cnnc(N2CC3(CN(C(=O)N4c5ccc(Cl)cc5OCC4C)C3)C2)c1 (stereo not drawn) [21-4]
19 | < 1 | 1 to 2 | > 20 ×10⁻⁶ cm/s | CC1COc2cc(Cl)ccc2N1C(=O)N1CC2(C1)CN(c1ncncc1F)C2 (stereo not drawn) [21-5]
20 | 2 to 3 | < 1 | > 20 ×10⁻⁶ cm/s | CC1COc2cc(Cl)ccc2N1C(=O)N1CC2(C1)CN(c1ccncn1)C2 (stereo not drawn) [21-6]
21 | 2 to 3 | 1 to 2 | > 20 ×10⁻⁶ cm/s | Cc1nccc(N2CC3(CN(C(=O)N4c5ccc(Cl)cc5OCC4C)C3)C2)n1 (stereo not drawn) [21-8]
22 | 1 to 2 | 1 to 2 | 10 to 20 ×10⁻⁶ cm/s | CC1COc2cc(Cl)ccc2N1C(=O)N1CC2(C1)CN(c1nccc(C(F)(F)F)n1)C2 (stereo not drawn) [21-10]

Reference: US12152038B2, “Vasopressin receptor antagonists and products and methods related thereto” (Neumora Therapeutics, Inc., priority 2017, dated 2024)
